Assay results as given in BindingDB's records for doi:10.1016/j.bmcl.2006.04.011 (Ambrilia Biopharma, 2006).

Each compound was assayed against T1, Dimer of Gag-Pol polyprotein [501-599] (Human immunodeficiency virus 1, UniProt P03367) (assay: Protease Inhibition Assay). Conditions: not given.
T1 construct: 501-599
Experimental: HIV-1 protease activity was measured by a continuous fluorometric assay. The proteolytic activity can be monitored by the increase in fluorescence intensity, and the protease products were analyzed by HPLC. IC50 values were determined from a dose-response curve, whereas Ki values were obtained by fitting initial rates to a tight-binding inhibition equation.

Which IC50 does the source give for `CC(C)CN(C(CO)CCCCNC(=O)[C@@H](NC(=O)OCc1ccccn1)C(c1ccccc1)c1ccccc1)S(=O)(=O)c1ccc(N)cc1` (stereo partly drawn) [pyridin-2-ylmethyl N-[(1S)-1-{[(5R)-5-[(4-aminobenzene)(2-methylpropyl)sulfonamido]-6-hydroxyhexyl]carbamoyl}-2,2-diphenylethyl]carbamate] here?
Its IC50 is 0.12 nM.

And the Ki?
The Ki was 0.4 nM.

For `CC(C)CN(C(CO)CCCCNC(=O)[C@@H](NC(=O)OCc1cccnc1)C(c1ccccc1)c1ccccc1)S(=O)(=O)c1ccc(N)cc1` (stereo partly drawn) [pyridin-3-ylmethyl N-[(1S)-1-{[(5R)-5-[(4-aminobenzene)(2-methylpropyl)sulfonamido]-6-hydroxyhexyl]carbamoyl}-2,2-diphenylethyl]carbamate], which IC50 is on record?
The IC50 was 0.48 nM.

And the Ki?
The Ki was 0.36 nM.

Which IC50 does the source give for `CC(C)CN(C(CO)CCCCNC(=O)[C@@H](NC(=O)OCc1ccncc1)C(c1ccccc1)c1ccccc1)S(=O)(=O)c1ccc(N)cc1` (stereo partly drawn) [pyridin-4-ylmethyl N-[(1S)-1-{[(5R)-5-[(4-aminobenzene)(2-methylpropyl)sulfonamido]-6-hydroxyhexyl]carbamoyl}-2,2-diphenylethyl]carbamate] here?
Its IC50 is 0.39 nM.

What about the Ki of the same compound?
The Ki was 0.02 nM.

`CC(C)CN(C(CO)CCCCNC(=O)[C@@H](NC(=O)OC(C)(C)C)C(c1ccccc1)c1ccccc1)S(=O)(=O)c1ccc(N)cc1` (stereo partly drawn) [tert-butyl N-[(1S)-1-{[(5R)-5-[(4-aminobenzene)(2-methylpropyl)sulfonamido]-6-hydroxyhexyl]carbamoyl}-2,2-diphenylethyl]carbamate] was tested. Which IC50 did it give?
The IC50 was 0.4 nM.

What about the Ki of the same compound?
Its Ki is 0.5 nM.

Same assay, conditions: pH 4.7; 30 °C

With `COC(=O)N[C@@H](CCc1ccccc1)C(=O)NCCCCC(CO)N(CC(C)C)S(=O)(=O)c1ccc(N)cc1` (stereo partly drawn) [methyl N-[(1S)-1-{[(5R)-5-[(4-aminobenzene)(2-methylpropyl)sulfonamido]-6-hydroxyhexyl]carbamoyl}-3-phenylpropyl]carbamate] as the compound, how does the IC50 read?
The IC50 was 40 nM.

With `COC(=O)N[C@H](C(=O)NCCCCC(CO)N(CC(C)C)S(=O)(=O)c1ccc(N)cc1)c1ccccc1` (stereo partly drawn) [methyl N-[(S)-{[(5R)-5-[(4-aminobenzene)(2-methylpropyl)sulfonamido]-6-hydroxyhexyl]carbamoyl}(phenyl)methyl]carbamate] as the compound, how does the IC50 read?
Its IC50 is greater than 300 nM.
